Entries after “also recorded” stand apart in the source; their conditions may differ. Values belong to the substance of their own block, whether it stands above or below them.
Tests used:
porcine skin [1] = test system: porcine skin
Procedure: (§1) Preparation of FITC-labeled Fab. The Pierce™ FITC Antibody-Labeling Kit (ThermoFisher Scientific) was used to label Fab purchased from Chemical & Scientific Corporation with FITC. Briefly, 925 μL of sterilized water were added into 75 μL of 0.67 M borate buffer that had been attached to the kit, and the labeling buffer (50 mM sodium borate, pH 8.5) was prepared. Lyophilized Fab, 1 mg, was added into 0.5 mL of the labeling buffer and was then melted. The Fab solution, 0.5 mL, was added into the FITC reagent vial that had been attached to the kit and was then pipetted 10 times for the complete melting of the pigment. After the collection of the slightly centrifuged sample solution in the vial's bottom, the reaction was incubated at room temperature for 60 minutes and under light blocking. At 60 minutes later, the column containing the reaction solution was set to the recovery column that had been attached to the kit. Subsequently, 400 μL of the homogeneously suspended purification column suspension solution were added. After centrifugation (about 1,000 μg, 30 to 45 seconds), FITC-labeled Fab was recovered. The amount of antibody labeling was calculated by measuring absorbance at 280 nm and 495 nm according to the following formulae:
(§2) Preparation of the FITC-labeled Fab-CAGE sample solution. The FITC-Fab solution (50 mM sodium borate, pH 8.5) was mixed with 6 CAGE variants at a volume ratio of 50%/50% (v/v %). Regarding CAGE (1:2), the FITC-Fab solution was mixed at volume ratios of 50%/50% (v/v %), 40%/60% (v/v %), and 30%/70% (v/v %). The mixed solutions were allowed to stand at room temperature for 1 hour. Subsequently, 300 μL of the mixed solutions obtained were used for the porcine skin penetrability test.
(§3) Preparation of the FITC-labeled Fab-CAGE-polysorbate sample solutions. Polysorbates 40 and 60 were mixed with the FITC-labeled Fab solution (50 mM sodium borate, pH 8.5) to obtain the final concentration of 3%. Subsequently, the resulting solutions were mixed with CAGE (1:2) at the volume ratios of 30%/70% (v/v %) [=30% CAGE (1:2)] or 40%/60% (v/v %) [=40% CAGE (1:2)]. Because of its nature of being solid at room temperature, polysorbate 60 was dissolved by 30-minute warming at 37° C. prior to the addition. Furthermore, the solution was warmed for 10 minutes at 37° C. to completely dissolve polysorbate 60 and was then mixed with CAGE (1:2). The resulting mixed solutions were allowed to stand at room temperature for 1 hour. The final concentration of antibodies was adjusted to 10 μg/mL.
(§4) Preparation of the porcine skin. In the porcine skin penetrability test, the cryopreserved skin of a WSP was unfrozen at room temperature. A pair of scissors were used to remove hair on the skin surface, followed by washing of the skin surface with PBS. The WSP skin, with the epidermis side upward, was set to the receiver chamber of a longitudinal diffusion cell (diffusion area: 1.77 cm2). The upper portion of the skin was filled with PBS (0.01% sodium azide). A contact gauge of conductivity was used to confirm skin conductivity at 100 Hz. The WSP skin with a resistivity of ≥5.65 kΩ/cm2 only was used in the porcine skin penetrability test based on previous studies [53,54].
(§5) Skin penetrability test using the porcine skin. The porcine skin was punched in a circle with a 36-mm diameter puncher. Subsequently, the porcine skin, with the epidermis side upward, was set on the receiver chamber of a longitudinal diffusion cell (diffusion area: 1.77 cm2). PBS (0.01% sodium azide, pH 7.4) was added into the interior of the receiver chamber and to the upper portion of the skin via a donor chamber, and the skin was allowed to stand in the incubator at 37° C. for 30 minutes. Meanwhile, the solution of the receiver chamber was stirred gently.

[2] = test system: Fab (antihistone H1 antibody fragment; antigen KLH-SSV peptide); details: Fab 10 μg/mL in 10 mM phosphate buffer
Procedure: The Fab solution (10 mM phosphate buffer, pH 7.4) was mixed with CAGE (1:2) at the volume ratios of 50%/50% (v/v %), 40%/60% (v/v %), and 30%/70% (v/v %), and the mixed solutions were allowed to stand at room temperature for 1 hour. The Fab solution was prepared to obtain the final concentration of 10 μg/mL.
The solution was dialyzed with 10 mM phosphate buffer (pH 7.4) used as the dialysate at room temperature for 48 hours. The dialysate was replaced appropriately during the dialysis. At 48 hours later, the solution thus obtained was stored in a refrigerator at 4° C.
ELISA was conducted according to the method of Chiang et al. [51]. Briefly, 2 μg of KLH-SSV peptide (0.1 M sodium bicarbonate-sodium carbonate buffer, pH 9.6±0.2) were instilled into each well, and the solution was allowed to stand overnight at room temperature. After the removal of the KLH-SSV solution and the washing of each well with PBS (0.05% Tween 20®), 300 μL of SuperBlock Blocking Buffer™ in PBS were added into each well, and the solution was allowed to stand for 1 hour at room temperature. […] At 20 minutes later, SpectraMax i3™ (Molecular Devices) was used to measure absorbance at 405 nm. […]

[3] = test system: Fab (antihistone H1 antibody fragment; antigen KLH-SSV peptide); assay: Deactivation-preventing effect of polysorbates on Fab in CAGE (1:2) (ELISA); type: biochemical; details: for Fab deactivation-preventing effect, qualitative comparison of polysorbates: 30% and 40% CAGE (1:2), 3% to 10% polysorbate (FIGS. 7A, 7B)
Procedure: Preparation of the Fab-CAGE (1:2)-polysorbate mixed solutions. […] Unlike other polysorbates, polysorbate 60 only is solid at room temperature.
The dialysate was replaced appropriately during the dialysis.
Each experiment was conducted in triplicate.

porcine skin [4] = assay: Porcine skin penetrability test of FITC-labeled Fab, confocal fluorescence microscopy; details: for impact on skin penetration of Fab: 3% polysorbate added to CAGE (1:2); for skin penetration of Fab: 3% polysorbate alone, without CAGE
Procedure: as §1, §2, §3, §4, §5

Substance: Choline And GEranate [CAGE (1:2)]
penetration of Fab into skin in vitro (porcine skin [1]): deep penetration into skin
skin penetration-enhancing effect of Fab (porcine skin [1]): most potent
Fab deactivation, dependence on CAGE (1:2) concentration [2]: deactivated in a concentration dependent manner
ELISA signal (absorbance of undialyzed aqueous Fab solution = 100%) ([2]; ≥5% CAGE (1:2), 1 hour room temperature, CAGE removed by dialysis): about 5%

Substance: polyoxyethylene (20) sorbitan monolaurate [polysorbate 20]
Fab deactivation-prevention effect (preventive effect) ([3]; 3% polysorbate, 40% CAGE (1:2), Fab 10 μg/mL): about 50%
Fab deactivation-prevention effect (preventive effect) ([3]; 5% polysorbate, 30% CAGE (1:2), Fab 10 μg/mL): ~100%
Fab deactivation-prevention effect (preventive effect) ([3]; 8% polysorbate, 30% CAGE (1:2), Fab 10 μg/mL): ~100%
Fab deactivation-prevention effect (preventive effect) ([3]; 10% polysorbate, 30% CAGE (1:2), compared with 5% and 8%): decreased slightly
Fab deactivation-prevention effect (preventive effect) ([3]; 10% polysorbate, 40% CAGE (1:2), compared to 3% polysorbate 20): comparable
Fab deactivation-prevention effect, dependence on polysorbate concentration ([3]; 40% CAGE (1:2), polysorbate above 3%): decreased with increasing polysorbate 20 concentrations
Fab deactivation ([3]; 50% CAGE (1:2), polysorbate concentrations other than 8%): mostly deactivated
Fab deactivation-prevention effect (preventive effect) ([3]; ≥3% (v/v) polysorbate, 30% CAGE (1:2), Fab 10 μg/mL): prevented

Substance: polyoxyethylene (20) sorbitan monooleate [polysorbate 80]
Fab deactivation-preventing effect, qualitative comparison of polysorbates [3]: needs to be at a higher concentration compared to polysorbate 40 and polysorbate 60

Substance: polyoxyethylene (20) sorbitan monopalmitate [polysorbate 40]
Fab deactivation-preventing effect, qualitative comparison of polysorbates [3]: prevented Fab deactivation at a lower concentration than did polysorbate 20; also recorded: equivalent; also recorded: more effective; also recorded: most potent
impact on skin penetration of Fab (porcine skin [4]): do not adversely impact skin penetration of Fab
skin penetration of Fab (porcine skin [4]): did not impact skin penetration of the Fab

skin penetration of Fab (porcine skin [4]): did not induce skin penetration of Fab
skin penetration of FITC-labeled Fab (porcine skin [4]; 30% CAGE + 3% polysorbate 60 versus 30% CAGE alone): Comparable skin penetration
Substance: polyoxyethylene (20) sorbitan monostearate [polysorbate 60]
Fab deactivation-prevention effect (preventive effect) ([3]; 3% polysorbate, 30% CAGE (1:2), Fab 10 μg/mL): > 80%
Fab deactivation-preventing effect, qualitative comparison of polysorbates [3]: equivalent; also recorded: more effective; also recorded: most potent
impact on skin penetration of Fab (porcine skin [4]): do not adversely impact skin penetration of Fab

— patent US12533315B2, “Compositions comprising at least one ionic liquid, a polypeptide, and at least one non-ionic surfactant for protein delivery” (PRESIDENT AND FELLOWS OF HARVARD COLLEGE, priority 2019, dated 2026)
